# Data: a melting point compilation (Tetko et al.; mined from patent text by program, amines drawn as free bases though some values may be those of a salt)
row,SMILES,melting point [°C]
1,Cc1cccc(NC(=O)NCC(=O)N(CC(=O)N(C)c2ccccc2Cl)c2ccccc2)c1,175
2,N#CC(SCCc1ccc2c(c1)OCO2)C(=O)O (configuration not stated),106 to 107
3,O=C1CCC(C(=O)O)C1 (configuration not stated),59 to 60.5
4,O=C(NC[C@@H](O)C(=O)O)OCC1c2ccccc2-c2ccccc21,165 to 166
5,CC(C)(C)C1CCCC(=Cc2ccc(Cl)cc2)C1(O)Cn1cncn1 (configuration not stated),171
6,CSc1cc(C(=O)CBr)ccc1C,85 to 86
7,COC(=O)C1(n2c(=O)[nH]c3ccccc3c2=O)CCCC1,164 to 165
8,CSc1ncnc2c(N(C)C)nc(Cl)nc12,166 to 168
9,COC(=O)c1c(S(N)(=O)=O)c(C)nn1C,174 to 176
10,O=c1[nH]c(=O)n(C2OC(CO)C(O)C2F)cc1Br (configuration not stated),214 to 216
11,CCSc1nnnn1-c1ccc(Cl)cc1F,76 to 79
12,CC(C)C(NC(=O)c1ccc(C(=O)NCC(=O)OCc2ccccc2)cc1)C(=O)N(CC(=O)NC(C(=O)C(F)(F)F)C(C)C)C1Cc2ccccc2C1 (mixture of isomers),64 to 66
13,CSC1=NCCN1C(=O)c1cccnc1Cl,100 to 102
14,Cc1cc([N+](=O)[O-])ccc1N1CCOCC1,147 to 150
15,CN(C)c1cc[nH]c(=O)c1[N+](=O)[O-],208 to 209
16,Nc1cc2c(cc1N)OC(F)(Cl)C(F)(Cl)O2 (configuration not stated),130 to 131
17,COc1cc(CSC2=NCCS2)nc(N)n1,122 to 124
18,COC(=O)C(C)(Cc1ccc(Cl)nc1)C(=O)OC,80 to 81
19,CC(=O)NC(C(=O)c1ccccc1N)[N+](=O)[O-] (configuration not stated),178 to 179
20,COC(=O)CCCc1n[nH]c(=O)c2cc(OC)ccc12,175 to 177
21,CC(C)[Si](C#Cc1c2ccccc2c2ccc3c(C#C[Si](C(C)C)(C(C)C)C(C)C)c4ccccc4c4ccc1c2c34)(C(C)C)C(C)C,318 to 321

row,SMILES,melting point [°C]
1,O=C(NCC1CCCCC1)NCC1CCCCC1,150 to 152
2,CCCCCCC1=CC(=C(Br)Br)NC1=O,103 to 105
3,CCCCCCCCCCCCCCOc1ccc(CC(=O)O)cc1Cl,68 to 69
4,CC(C)(C)c1ccc(OC(=O)n2c3c(c(=O)n(C4CCCCO4)c2=O)CCC3)cc1 (configuration not stated),135
5,O=Cc1cc(O)c(O)cc1[N+](=O)[O-],201
6,CCOC(=O)c1c(Cl)c(Cl)c(Cl)c(Cl)c1C#N,74 to 75
7,CC12CCC(=O)CC1CCC1C2CCC2(C)C(O)C(N=[N+]=[N-])CC12 (configuration not stated),165 to 167
8,O=C1NCC2(CCN(Cc3ccccc3)CC2)O1,159 to 161
9,COC(=O)Nc1nc(Cc2ccccc2)c(C(=O)c2sc(NC(=O)OC)nc2Cc2ccccc2)s1,189 to 190
10,CCC(=O)Nc1cc(S(=O)(=O)c2ccccc2)ccc1NC(=NC(=O)OC)NC(=O)OC,137
11,Cc1cn(C2CC(O)C(CO[Si](C)(C)C(C)(C)C)O2)c(=O)[nH]c1=O (configuration not stated),193 to 194
12,CCOC(=O)C1CCc2[nH]c3ccc(F)cc3c2C1 (configuration not stated),115 to 117
13,O=C(O)c1n[nH]c2ncccc12,175 to 176
14,C=CCCn1cc(Br)cnc1=O,127 to 128
15,O=C(CCCN1CCC(c2ccc(Cl)cc2)CC1)c1ccc(CN2CCCC2)cc1,63 to 65
16,O=C(O)C[C@H]1CCCCN1C(=O)C=Cc1c(-c2ccccc2)nn2ccccc12,165 to 166
17,CCCC(=O)C(=O)[C@H](CC1CCCCC1)NC(=O)[C@H](Cc1cn(S(=O)(=O)c2ccc(C)cc2)cn1)NC(=O)OC(C)(OC)OC,60 to 67
18,NC(=O)N(O)CC(=O)N(Cc1cccs1)c1ccc(Br)cc1,76 to 79.5
19,c1cc2[nH]ncc2nc1N1CCCCC1,217 to 218
20,COc1ccc(CN(Cc2ccc(OC)cc2)c2nc(Cl)c3ncn(Cc4ccc(OC)cc4)c3n2)cc1,157 to 159

# Results, then the compound that gave them:
row,melting point [°C],SMILES
1,112 to 115,CCc1cccc(CC)c1N(Cc1c[nH]nn1)C(=O)c1ccccc1
2,221 to 222,Cn1c(=O)nc(-c2ccccc2F)c2c3c(sc21)CCCC3
3,194 to 196,CC(C)Oc1ccc2c(n1)C(C(=O)c1cccs1)C(=O)N2C(N)=O (configuration not stated)
4,91.5,OCc1ccc(-c2ccccc2)s1
5,226,Cc1cc(C(=O)O)n(-c2ccc(C=Cc3ccccc3)c(C#N)c2)n1
6,252 to 254,CCCOc1cc2ccccc2c2c(=O)c(-c3ccoc3)c[nH]c12
7,199 to 200,CC1Cc2cccc3c4oc(=O)c(Sc5cccc(F)c5)c(O)c4c(=O)n1c23 (configuration not stated)
8,110 to 111,OCC1Cc2c(cc(Cl)c3c(-c4ccccc4F)noc23)O1 (configuration not stated)
9,170 to 171,O=S(=O)(c1cccs1)N(CCO)c1cccc2cc(-c3nccs3)[nH]c12
10,187 to 190,CCNC(=O)c1ccc(-c2ccc3nnn(Cc4ccc5ncccc5c4)c3n2)cc1Cl
11,148 to 151,CC(COc1ccc(-n2cncn2)cc1)(NS(=O)(=O)Cc1ccccc1)C(=O)O (configuration not stated)
12,195 to 196,CCOC(=O)C1=C(c2ccc(-n3c(C)nc4cnccc43)cc2)NC(C)=C(C(=O)OCCOC)C1c1ccccc1Cl (configuration not stated)
13,199 to 201,CC(=O)Nc1nc(CCc2ccc(N)cc2)c(C(=O)NCc2ccc(C(F)(F)F)cc2)s1
14,185 to 188,COc1ccc(CNc2ncnc(Cl)c2N)cc1OC
15,156 to 157,CS(=O)(=O)c1ccc(-c2oc(CO)nc2-c2ccc(F)cc2)cc1
16,> 300,COc1ccc(-c2cc(=O)[nH]c(=O)[nH]2)cc1OC
17,132,Cc1ccc(S(=O)(=O)Nc2cc(C(C)C)c([N+](=O)[O-])cc2Br)cc1
18,87 to 89,COC(=O)c1cn(Cc2ccccc2F)cn1
19,122 to 123,O=C(NCCCN1CCN(c2ccc(F)cc2OCC(F)(F)F)CC1)c1conc1-c1ccc(F)cc1

row,melting point [°C],SMILES
1,162,CP(C)(=O)CCCOC(=O)c1ccccc1Nc1ccnc2cc(Cl)ccc12
2,121 to 124,COc1nc(NC(=O)NS(=O)(=O)c2ccccc2OC(F)F)nc(C2CC2)n1
3,92 to 95,COc1ccc2cc([C@H](C)C(=O)OCCN(CCO[N+](=O)[O-])S(=O)(=O)c3ccc(C)cc3)ccc2c1
4,143 to 145,CCOC(=O)c1cc(=O)c2c(OCC(O)COc3ccc(C#N)c(OC)c3)cccc2o1 (configuration not stated)
5,174,Cn1c(C(F)(F)F)cc(=O)n(-c2cc(Oc3ccc4cc(O)ccc4c3)c(C#N)cc2F)c1=O
6,121 to 123,Cc1c(Cl)nc2nc(SCc3ccccc3)nn2c1Cl
7,114 to 115,Cc1oc(-c2ccccc2)nc1COc1cccc(CON=C(CCCCC(=O)O)c2ccccc2)c1
8,123,Cc1cc(-c2cc(C(F)F)nn2-c2ccc(S(C)(=O)=O)c(F)c2)ccc1-c1cscn1
9,145 to 147,OCc1cn(-c2ccc(SC(F)(F)F)cc2)cn1
10,119 to 121,Cc1ccccc1-c1nc(-c2ccc(F)cc2)n[nH]1
11,121 to 122,CCOC(=O)c1nnc(-c2ccccc2)cc1-c1cccc([N+](=O)[O-])c1
12,177 to 178,CCOc1nn(Cc2ccnc(OCc3cn4c(-c5ccccc5)cccc4n3)c2)cc1CCC(=O)O
13,201 to 202,COc1cc(C2CCNCC2)ccc1Nc1ncc2ccc(-c3cccc(S(=O)(=O)NC(C)(C)C)c3)n2n1
14,202 to 204,COc1cc(OC)c2c(=O)[nH]c(-c3cccc(N4CCN(C(C)CO)CC4)n3)nc2c1 (configuration not stated)
15,146 to 148,CCCCCn1ncc2c(N)c3c(nc21)CN(Cc1cccc(C(F)(F)F)c1)C3=O
16,217 to 218,O=C(N[C@H](Cc1ccc(C(F)(F)F)cc1)[C@@H](O)c1cccc2ccccc12)c1cccc2ccccc12 (racemic)
17,148 to 149,Cc1nc2c(N[C@@H]3c4ccccc4C[C@H]3O)cc(C(=O)N(C)C)cn2c1C (relative stereo)
18,205 to 207,COc1ccc(COc2cccc3c2CN(C2CCC(=O)NC2=O)C3=O)cc1OC (configuration not stated)
19,224 to 226,Cc1ccccc1-c1cnc2c(C(F)(F)F)cccc2c1-c1cccc(NC(=O)Nc2ccccc2Cl)c1

row,melting point [°C],SMILES
1,139 to 140,CCOCn1c(Oc2cc(C)cc(C)c2)c(CC)c(=O)[nH]c1=O
2,> 240,CN1C(=O)CC[C@]2(C)c3ccc(-c4ccc(O)c(F)c4)cc3CC[C@@H]12
3,81 to 86,CCc1nc2c(C)cc(C)nc2n1Cc1ccc(C(CC(=O)NS(=O)(=O)c2ccccc2)c2ccccc2)cc1 (configuration not stated)
4,78 to 80,Cc1cc2ccccc2n1-c1ccnc2ccccc12
5,105 to 106,Cc1cc(-c2cccc(C(F)(F)F)c2)c2ncc(OC(F)F)nc2c1
6,167 to 169,CCOC(=O)c1nc(Nc2ccccc2)sc1-c1ccncc1
7,179 to 181,CNCc1cccc(CN(C)c2nc(=O)c3c(C)c(OC)c(OC)cc3[nH]2)c1
8,283 to 284,O=S1(=O)CCN2C=CC(Cl)=C(c3ccc(Oc4ccccc4)cc3)C2=N1
9,167 to 169,COC(=O)c1ccc(CN2C(=O)C3(COc4cc5c(cc43)OCCO5)c3ccccc32)cc1 (configuration not stated)
10,101 to 102,CC(=O)N1CC(C)=NN(c2cc(Cl)c(Cc3ccc(Cl)cc3)c(Cl)c2)C1=O
11,126 to 128,CC(C)(C)C(=O)Oc1cc(OS(=O)(=O)C(F)(F)F)cc2oc(-c3ccccc3)cc(=O)c12
12,218 to 220,COc1ccnc(CCc2nc3cc(-c4ccc(S(=O)(=O)N5CCN(c6ccccc6)CC5)cc4)cnc3[nH]2)c1
13,197 to 205,COc1cc(Nc2c(C#N)cnc3cc4cc(OCCN5CCN(C)CC5)c(OC)cc4cc23)c(Cl)cc1F
14,146 to 148,O=C(CBr)Nc1ccc(Cl)cc1C(=O)c1c(F)cccc1F
15,187 to 188,O=C1CCN(Cc2cnc(Nc3n[nH]c4ccc(-c5ncccc5Cl)cc34)s2)CC1
16,219 to 220,Cc1cc(C)n(-c2nc(Nc3ccc(C(F)(F)F)cc3)c3ccccc3n2)n1
17,125 to 137,Cc1cccc(C)c1OCC(C)NCC(O)c1cc(C(N)=O)cs1 (configuration not stated)
18,158 to 162,NC(=O)c1cccc(-c2ccnc(C(=O)N(O)Cc3ccccc3)c2)c1
